Assay results as given in patent US10344032B2, “Agents for treating neurogenic inflammation and neuropathic hyperalgesia related disorders” (PÉCSI TUDOMÁNYEGYETEM, priority 2014, dated 2019).

How the values were obtained:
sst4 receptor = molecular target: T1, sst4 receptor (Homo sapiens, UniProt P31391); experiment: Somatostatin sst4 receptor-coupled G-protein activation assay ([35S]GTPγS binding); type: biochemical; details: 100 nM concentration; membrane fractions of CHO cells stably expressing the sst4 receptor; percentage over specific binding in absence of agonists
T1 construct: expressed in transfected cells
T1 sequence (P31391 whole entry): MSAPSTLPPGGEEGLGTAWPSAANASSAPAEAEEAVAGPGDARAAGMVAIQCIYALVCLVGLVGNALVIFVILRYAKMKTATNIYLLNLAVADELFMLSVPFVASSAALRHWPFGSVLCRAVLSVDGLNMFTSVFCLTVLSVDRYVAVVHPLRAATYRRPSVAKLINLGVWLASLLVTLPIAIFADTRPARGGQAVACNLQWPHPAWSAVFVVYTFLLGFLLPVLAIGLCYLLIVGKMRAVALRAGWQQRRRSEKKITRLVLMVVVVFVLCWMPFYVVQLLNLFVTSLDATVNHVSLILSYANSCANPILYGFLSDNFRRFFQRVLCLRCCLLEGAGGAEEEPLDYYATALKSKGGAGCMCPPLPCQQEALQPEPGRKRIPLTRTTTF
From the text: [^35S]GTPγS binding assay is a functional test determining agonist-induced and receptor-mediated G-protein activation which is based on the increase in guanine nucleotide exchange at G-proteins upon agonist stimulation. The interaction of a G protein-coupled receptor (GPCR) with the G protein is the first step in the transduction of the receptor binding signal to the activation of the second-messenger systems. We measured the level of [^35S]-GTPγS bound to the α subunit of G proteins and determined the efficacy of the compounds. Compounds which elicited 200% [^35S]GTPγS binding in nanomolar concentration were considered effective agonist. The examined compounds were added into the medium in 1 nM, 10 nM, 100 nM 1 μM and 10 μM concentrations.
Membrane fractions were prepared from CHO cells stably expressing the sst4 receptor in Tris-EGTA buffer (50 mM Tris-HCl, 1 mM EGTA, 3 mM MgCl2, 100 mM NaCl, pH 7.4). These membrane fractions (˜10 μg of protein/sample) were incubated at 30° C. for 60 min in the same Tris-EGTA buffer containing [^35S]GTPγS (0.05 nM) and increasing concentrations (10^−9 to 10^−5 M) of test compounds in the presence of 30 μM GDP in a final volume of 500 μl. Non-specific binding was determined in the presence of 10 μM unlabelled GTPγS. Total binding was measured in the absence of test compounds. To calculate the specific binding, non-specific binding was subtracted from total binding. The reaction was terminated by filtrating the samples through Whatman GF/B glass fiber filters. Using 48-well Slot Blot Manifold from Cleaver Scientific filters were washed three times with ice-cold 50 mM Tris-HCl buffer (pH 7.4). After drying for 60 min at 37° C., radioactivity was measured in scintillation liquid in a Packard Tri-Carb 2800 TR scintillation counter. Test compound-induced G-protein stimulation was given as percentage over the specific [^35S]GTPγS binding observed in the absence of agonists.

[1] = tested on: sensory nerve terminals of isolated rat tracheae; experiment: Electrical field stimulation-induced release of CGRP from sensory nerve terminals of isolated rat tracheae; details: 500 nM; absolute release = stimulated + post-stimulated fractions minus basal release
Protocol: Rats were exsanguinated in deep anaesthesia (sodium thiopental, 50 mg/kg i.p.), then the whole trachea was removed and cleaned of fat and adhering connective tissues. Tracheae from two rats were placed into the same 1.8 ml organ bath to obtain sufficient amount of released peptide and perfused (1 ml/min) with pH—(7.2) controlled oxygenized Krebs solution for 60 minutes (equilibration period) at 37° C. temperature. After discontinuation of the flow, the solution was changed three times for 8 minutes to produce pre-stimulated, stimulated, post-stimulated fractions. Electrical field stimulation (40 V, 0.1 ms, 10 Hz for 120 s; 1200 pulses) was performed to elicit neurotransmitter release at the beginning of the second 8-minute period. […]
CGRP concentration was determined from 400-400 μl samples of the organ bath solutions by means of a selective and sensitive radioimmunoassay method developed in our laboratories and described in details in several previous papers (Nemeth et al. 1998, 1999, 2006; Helyes et al., 1997, 2001, 2006; Borzsei et al., 2008). The released amount of the peptides was calculated as fmol peptide per mg wet tissue (trachea). The absolute EFS-induced CGRP outflow in each experiment was calculated by taking off the basal release measured in the first (pre-stimulated) fraction from the second and third 8-min fractions and then adding these values. […]

rat [2] = experiment: Partial sciatic nerve ligation (Seltzer operation) mechanical hyperalgesia (Randall-Selitto test); type: in vivo; details: 100 μg/kg p.o., 60 min; 7 days after partial sciatic nerve ligation; Randall-Sellitto test
Protocol: Wistar rats were anaesthetised with sodium-pentobarbital (Euthasol, 50 mg/kg i.p.). The common sciatic nerve was exposed unilaterally on the right side high in the thigh and ⅓-½ of the nerve trunk was carefully separated and tightly ligated using a siliconised silk suture (Ethicone 9-0). Then the wound was closed and the animals were allowed to survive for 7 days (Seltzer et al., 1990). During this period, signs of spontaneous pain (holding the legs in elevated position), mechanical hyperalgesia and allodynia developed.
Mechanonociceptive threshold of the hindpaws was measured with analgesimetry (Randall-Sellitto test) and touch sensitivity of the plantar surface with dynamic plantar aesthesiometry on the same animals. Hyperalgesia (decrease of the mechanonociceptive threshold) and allodynia (decrease of touch sensitivity) were expressed in % compared to the initial pre-operation control values. Significant decrease of the mechanonociceptive thresholds, as well as touch sensitivity thresholds developed 7 days after the surgery (Szolcsanyi et al. 2003; Sandor et al. 2006). […]
b) The mechanonociceptive thresholds of the hindpaw was measured with the Ugo Basile Analgesimeter (7210, Comerio, Italy; Randall-Selitto test). […] The threshold force which elicited withdrawal was read on an analog scale calibrated in grams. […]

rat [3] = experiment: Plantar incision-induced mechanical allodynia (dynamic plantar aesthesiometer), postoperative pain model; type: in vivo; details: 100 μg/kg p.o., measured 60 min later; one day after plantar incision; dynamic plantar aesthesiometry
Protocol: Rats were anaesthesized with sodium-pentobarbital (Euthasol, 40 mg/kg i.p.) and a 1 cm longitudinal incision was made through the skin, fascia and muscle of the plantar aspect of the hindpaw. Significant decrease of both the thermonociceptive and mechanonociceptive thresholds (heat and mechanical allodynia) of the paw develops 1 day after this procedure.
One hundred and forty five (145) female Wistar rats (150-250 g) kept in the Animal House of the University of Pecs in a temperature-controlled room provided with a 12-hour light-dark cycle, standard rat chow and water ad libitum were used in this experimental series. They were brought to the air-conditioned laboratory the day before the experiment started. Throughout the total study the same assistant handled all the animals. […] Touch sensitivity was measured with a dynamic plantar aesthesiometer (DPA) and the thermonociceptive threshold was determined with an increasing temperature water-bath (ITWB) on the same rats (see below). […] Test compounds were administered p.o. and post-dose touch sensitivity and thermonociceptive thresholds were measured 60 min later. […]
a) Touch sensitivity of the plantar surface of the paw was measured with the Ugo Basile Dynamic Plantar Aesthesiometer (DPA; 37400, Comerio, Italy), which is an electronic von Frey device. […]

| Structure (SMILES) | melting point | [35S]GTPγS binding (G-protein activation) (sst4 receptor) | inhibition on the absolute CGRP release [1] | reduction of mechanical hyperalgesia (rat [2]) | decrease of mechanical allodynia (rat [3]) |
| --- | --- | --- | --- | --- | --- |
| COc1ccc(CCNc2ncnc3c2c(C)c(C)n3Cc2ccccc2)cc1 [Example 2, (7-Benzyl-5,6-dimethyl-7H-pyrrolo[2,3-d]pyrimidin-4-yl)-[2-(4-methoxy-phenyl)-ethyl]-amine] | 100 to 101.9 °C | 245.67% | 72.5% |  |  |
| Cc1c(C)n(Cc2ccccc2)c2ncnc(NCCc3ccc(O)cc3)c12 [Example 4, 4-[2-(7-Benzyl-5,6-dimethyl-7H-pyrrolo[2,3-d]pyrimidin-4-ylamino)-ethyl]-phenol] | 198 to 199 °C |  |  | 46% |  |
| Cc1c(C)n(Cc2ccccc2)c2ncnc(NCCc3cccc(Cl)c3)c12 [Example 39, (7-Benzyl-5,6-dimethyl-7H-pyrrolo[2,3-d]pyrimidin-4-yl)-[2-(3-chloro-phenyl)-ethyl]-amine] | 205 to 207 °C |  |  | 31% |  |
| COc1cccc(CCNc2ncnc3c2c(C)c(C)n3Cc2ccccc2)c1 [Example 40, (7-Benzyl-5,6-dimethyl-7H-pyrrolo[2,3-d]pyrimidin-4-yl)-[2-(3-methoxy-phenyl)-ethyl]-amine] | 185 to 187.2 °C | 202.67% |  |  |  |
| COc1ccc(CCNc2ncnc3c2c(C)c(C)n3CCCN(C)C)cc1 [Example 41, [7-(3-Dimethylamino-propyl)-5,6-dimethyl-7H-pyrrolo[2,3-d]pyrimidin-4-yl]-[2-(4-methoxy-phenyl)-ethyl]-amine] |  | 207.67% |  |  |  |
| CC(=O)Nc1ccc(CCNc2ncnc3c2c(C)c(C)n3CCCN(C)C)cc1 [Example 51, N-(4-{2-[7-(3-Dimethylamino-propyl)-5,6-dimethyl-7H-pyrrolo[2,3-d]pyrimidin-4-ylamino]-ethyl}-phenyl)-acetamide] | 132.7 to 133.7 °C |  | 79.55% |  | 63% |
| Cc1c(C)n(Cc2ccccc2)c2ncnc(NCCc3cccc(O)c3)c12 [Example 58, 3-[2-(7-Benzyl-5,6-dimethyl-7H-pyrrolo[2,3-d]pyrimidin-4-ylamino)-ethyl]-phenol] | 208.7 to 209.2 °C | 194.5% |  |  | 64.7% |
